Patent US20260060961A1, “SUBSTITUTED HETEROCYCLES AS RAS INHIBITORS” (Jazz Pharmaceuticals Ireland Limited, priority 2022, published 2026)

Target: Recombinant human KRAS protein containing the G12C amino acid substitution (Homo sapiens (Human), UniProt P01116, G12C)
Test: HTRF nucleotide exchange assay, KRAS G12C
Type: biochemical
Conditions: 180 minute incubation with compound at room temperature; at least two independent replicates; read-out: KRAS G12C HTRF NEA IC50
Experimental: The capacity of compounds to bind KRAS G12C and KRAS wildtype was quantified using a HTRF nucleotide exchange assay. Recombinant human KRAS protein (5 nM; aa1-188 KRAS WT or KRAS containing the G12C amino acid substitution, an N-terminal 6×His-tag and leader sequence), and 2 nM Europium-labeled anti-6×His antibody were mixed in assay buffer (10 mM HEPES pH7.3, 75 mM NaCl, 5 mM MgCl2, 0.05% BSA, 0.0025% NP-40 and 100 mM KF) with various concentrations of compound in a 384-well plate and a volume of 5 μL. After a 180 minute incubation at room temperature, 5 μl of 200 nM EDA-GTP-DY647P1 diluted in assay buffer was added to the plate. Following 30-minute incubation at room temperature, time-resolved fluorescence was measured on a PerkinElmer Envision plate reader. DMSO (0.3%) and unlabeled GDP (1 μM) or equivalent tool compound were used to generate the Max and Min assay signals, respectively. Data was analysed using a four-parameter logistic model to calculate IC50 values, with at least two independent replicates were performed for each compound.

Sequence of Recombinant human KRAS protein containing the G12C amino acid substitution (P01116 other isoform, or with tags, fused parts or gaps G12C): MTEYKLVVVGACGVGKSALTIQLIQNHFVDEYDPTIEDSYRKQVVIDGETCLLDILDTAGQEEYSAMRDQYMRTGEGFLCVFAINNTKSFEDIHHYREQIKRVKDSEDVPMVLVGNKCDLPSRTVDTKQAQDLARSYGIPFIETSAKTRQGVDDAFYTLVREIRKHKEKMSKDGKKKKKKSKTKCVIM

SMILES | IC50 [µM]
C=CC(=O)N1CC2(CC(c3nc(-c4cccnc4)c(-c4c(C)ccc5[nH]ncc45)n3C)C2)C1 [Example 3, 1-[6-[1-methyl-5-(5-methyl-1H-indazol-4-yl)-4-(3-pyridyl)imidazol-2-yl]-2-azaspiro[3.3]heptan-2-yl]prop-2-en-1-one] | ≥ 10
C=CC(=O)N1CC2(CC(c3nc(-c4ccc(-n5cnc(C6CC6)c5)cc4)c(-c4c(C)ccc5[nH]ncc45)n3C)C2)C1 [Example 8, 1-[6-[4-[4-(4-cyclopropylimidazol-1-yl)phenyl]-1-methyl-5-(5-methyl-1H-indazol-4-yl)imidazol-2-yl]-2-azaspiro[3.3]heptan-2-yl]prop-2-en-1-one] | 1 to 10
C=CC(=O)N1CC2(CC(c3nc(-c4ccc5c(c4)nc(C)n5C)c(-c4c(C)ccc5[nH]ncc45)n3C)C2)C1 [Example 9, 1-[6-[4-(1,2-dimethylbenzimidazol-5-yl)-1-methyl-5-(5-methyl-1H-indazol-4-yl)imidazol-2-yl]-2-azaspiro[3.3]heptan-2-yl]prop-2-en-1-one] | 1 to 10
C=CC(=O)N1CC2(CC(c3nc(-c4cnn(CCN5CCOCC5)c4)c(-c4c(C)ccc5[nH]ncc45)n3C)C2)C1 [Example 10, 1-[6-[1-methyl-5-(5-methyl-1H-indazol-4-yl)-4-[1-(2-morpholinoethyl)pyrazol-4-yl]imidazol-2-yl]-2-azaspiro[3.3]heptan-2-yl]prop-2-en-1-one] | ≥ 10
C=CC(=O)N1CC2(CC(c3nc(-c4ccc5c(cnn5C)c4C)c(-c4c(C)ccc5[nH]ncc45)n3C)C2)C1 [Example 11, 1-[6-[4-(1,4-dimethylindazol-5-yl)-1-methyl-5-(5-methyl-1H-indazol-4-yl)imidazol-2-yl]-2-azaspiro[3.3]heptan-2-yl]prop-2-en-1-one] | 1 to 10
C=CC(=O)N1CC2(CC(c3nc(-c4cn(C)nc4C)c(-c4c(C)ccc5[nH]ncc45)n3C)C2)C1 [Example 12, 1-[6-[4-(1,3-dimethylpyrazol-4-yl)-1-methyl-5-(5-methyl-1H-indazol-4-yl)imidazol-2-yl]-2-azaspiro[3.3]heptan-2-yl]prop-2-en-1-one] | ≥ 10
C=CC(=O)N1CC2(CC(c3nc(-c4cnn(CC)c4)c(-c4c(C)ccc5[nH]ncc45)n3C)C2)C1 [Example 13, 1-[6-[4-(1-ethylpyrazol-4-yl)-1-methyl-5-(5-methyl-1H-indazol-4-yl)imidazol-2-yl]-2-azaspiro[3.3]heptan-2-yl]prop-2-en-1-one] | ≥ 10
C=CC(=O)N1CC2(CC(c3nc(-c4cnn(CCOC)c4)c(-c4c(C)ccc5[nH]ncc45)n3C)C2)C1 [Example 15, 1-[6-[4-[1-(2-methoxyethyl)pyrazol-4-yl]-1-methyl-5-(5-methyl-1H-indazol-4-yl)imidazol-2-yl]-2-azaspiro[3.3]heptan-2-yl]prop-2-en-1-one] | ≥ 10
C=CC(=O)N1CC2(CC(c3nc(-c4ccc5c(c4)c(C)nn5C)c(-c4c(C)ccc5[nH]ncc45)n3C)C2)C1 [Example 16, 1-[6-[4-(1,3-dimethylindazol-5-yl)-1-methyl-5-(5-methyl-1H-indazol-4-yl)imidazol-2-yl]-2-azaspiro[3.3]heptan-2-yl]prop-2-en-1-one] | 1 to 10
C=CC(=O)N1CC2(CC(c3nc(-c4ccc5ocnc5c4)c(-c4c(C)ccc5[nH]ncc45)n3C)C2)C1 [Example 17, 1-[6-[4-(1,3-benzoxazol-5-yl)-1-methyl-5-(5-methyl-1H-indazol-4-yl)imidazol-2-yl]-2-azaspiro[3.3]heptan-2-yl]prop-2-en-1-one] | 1 to 10
C=CC(=O)N1CC2(CC(c3nc(-c4ccc(OCC(=O)N(C)C)cc4)c(-c4c(C)ccc5[nH]ncc45)n3C)C2)C1 [Example 19, N,N-dimethyl-2-[4-[1-methyl-5-(5-methyl-1H-indazol-4-yl)-2-(2-prop-2-enoyl-2-azaspiro[3.3]heptan-6-yl)imidazol-4-yl]phenoxy]acetamide] | 1 to 10
C=CC(=O)N1CC2(CC(c3nc(-c4ccc(OCC(=O)N5CCOCC5)cc4)c(-c4c(C)ccc5[nH]ncc45)n3C)C2)C1 [Example 20, 1-[6-[1-methyl-5-(5-methyl-1H-indazol-4-yl)-4-[4-(2-morpholino-2-oxo-ethoxy)phenyl]imidazol-2-yl]-2-azaspiro[3.3]heptan-2-yl]prop-2-en-1-one] | 1 to 10
C=CC(=O)N1CC2(CC(c3nc(-c4ccc(C(=O)NCCN(C)C)cc4)c(-c4c(C)ccc5[nH]ncc45)n3C)C2)C1 [Example 22, N-[2-(dimethylamino)ethyl]-4-[1-methyl-5-(5-methyl-1H-indazol-4-yl)-2-(2-prop-2-enoyl-2-azaspiro[3.3]heptan-6-yl)imidazol-4-yl]benzamide] | 1 to 10

The remaining lines, values ahead:

IC50 [µM] | SMILES
≤ 1 | C=CC(=O)N1CC2(CC(c3nc(-c4ccc5c(cnn5C)c4)c(-c4c(C)ccc5[nH]ncc45)n3C)C2)C1 [Example 1, 1-[6-[1-methyl-4-(1-methylindazol-5-yl)-5-(5-methyl-1H-indazol-4-yl)imidazol-2-yl]-2-azaspiro[3.3]heptan-2-yl]prop-2-en-1-one]
1 to 10 | C=CC(=O)N1CC2(CC(c3nc(-c4ccccc4)c(-c4c(C)ccc5[nH]ncc45)n3C)C2)C1 [Example 2, 1-[6-[1-methyl-5-(5-methyl-1H-indazol-4-yl)-4-phenyl-imidazol-2-yl]-2-azaspiro[3.3]heptan-2-yl]prop-2-en-1-one]
1 to 10 | C=CC(=O)N1CC2(CC(c3nc(-c4ccc(OC)cc4F)c(-c4c(C)ccc5[nH]ncc45)n3C)C2)C1 [Example 4, 1-[6-[4-(2-fluoro-4-methoxy-phenyl)-1-methyl-5-(5-methyl-1H-indazol-4-yl)imidazol-2-yl]-2-azaspiro[3.3]heptan-2-yl]prop-2-en-1-one]
≤ 1 | C=CC(=O)N1CC2(CC(c3nc(-c4ccc(N5CCOCC5)cc4)c(-c4c(C)ccc5[nH]ncc45)n3C)C2)C1 [Example 5, 1-[6-[1-methyl-5-(5-methyl-1H-indazol-4-yl)-4-(4-morpholinophenyl)imidazol-2-yl]-2-azaspiro[3.3]heptan-2-yl]prop-2-en-1-one]
1 to 10 | C=CC(=O)N1CC2(CC(c3nc(-c4cccc(N5CCOCC5)c4)c(-c4c(C)ccc5[nH]ncc45)n3C)C2)C1 [Example 6, 1-[6-[1-methyl-5-(5-methyl-1H-indazol-4-yl)-4-(3-morpholinophenyl)imidazol-2-yl]-2-azaspiro[3.3]heptan-2-yl]prop-2-en-1-one]
1 to 10 | C=CC(=O)N1CC2(CC(c3nc(-c4ccc5cnn(C)c5c4)c(-c4c(C)ccc5[nH]ncc45)n3C)C2)C1 [Example 7, 1-[6-[1-methyl-4-(1-methylindazol-6-yl)-5-(5-methyl-1H-indazol-4-yl)imidazol-2-yl]-2-azaspiro[3.3]heptan-2-yl]prop-2-en-1-one]
≤ 1 | C=CC(=O)N1CC2(CC(c3nc(-c4ccc5nn(C)cc5c4)c(-c4c(C)ccc5[nH]ncc45)n3C)C2)C1 [Example 14, 1-[6-[1-methyl-4-(2-methylindazol-5-yl)-5-(5-methyl-1H-indazol-4-yl)imidazol-2-yl]-2-azaspiro[3.3]heptan-2-yl]prop-2-en-1-one]
≤ 1 | C=CC(=O)N1CC2(CC(c3nc(-c4ccc5c(c4)OCCN5C)c(-c4c(C)ccc5[nH]ncc45)n3C)C2)C1 [Example 18, 1-[6-[1-methyl-4-(4-methyl-2,3-dihydro-1,4-benzoxazin-7-yl)-5-(5-methyl-1H-indazol-4-yl)imidazol-2-yl]-2-azaspiro[3.3]heptan-2-yl]prop-2-en-1-one]
